Key:
[1] = molecular target: β-lactamase enzyme produced by Staphylococcus aureus Russell (Staphylococcus aureus, UniProt P00807); assay: Inhibition of the β-lactamase from Staphylococcus aureus Russell (I50); assay type: biochemical; details: β-lactamase from Staph. aureus Russell
Method: Inhibition of the β-lactamase from Staphylococcus aureus Russell
I50 values were determined using the process described in Belgium Pat. No. 827,926.

[2] = tested on: Staph. aureus Russell; assay: Antibacterial activity (M.I.C.) against Staphylococcus aureus Russell; assay type: cell-based; details: compound alone
Excerpt: (§1) Antibacterial activity and antibacterial synergy with ampicillin against Staphylococcus aureus Russell

[3] = tested on: Staph. aureus Russell; assay: Antibacterial synergy with ampicillin against Staphylococcus aureus Russell (M.I.C. of ampicillin in presence of compound); assay type: cell-based; details: inhibitor conc. 20 μg/ml
Excerpt: as §1

[4] = Acute toxicity in mice; assay type: in vivo
Method: The compound (mixture of 2 isomers) from Example 6.2 was tested for acute toxicity in mice as described below.
Mice: CDI, female, 18 - 22 gm. 5 mice per group
The compound was injected in aqueous dimethylformamide (≤15% DMF) at 0.4 ml/20 g for the 2000 mg./Kg. dosage and at 0.2 ml/20 g. for the other dosages.

β-lactamase enzyme produced by Staphylococcus aureus Russell, sequence (P00807 25-281): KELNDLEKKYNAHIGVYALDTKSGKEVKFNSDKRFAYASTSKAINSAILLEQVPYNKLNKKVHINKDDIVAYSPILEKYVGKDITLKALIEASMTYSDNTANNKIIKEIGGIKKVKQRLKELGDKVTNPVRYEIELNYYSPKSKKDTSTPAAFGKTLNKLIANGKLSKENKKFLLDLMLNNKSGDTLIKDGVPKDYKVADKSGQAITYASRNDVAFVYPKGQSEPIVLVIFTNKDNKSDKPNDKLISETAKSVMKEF

Compound: O=C1C[C@@H]2O[C@@H](CBr)CN12 (racemic) [Example 2.2, (3RS, 5SR)-3-Bromomethyl-4-oxa-1-azabicyclo[3.2.0]heptan-7-one]
- IC50 [1]: 14.6 µM

Compound: O=C(Nc1ccccc1)OC[C@H]1CN2C(=O)C[C@@H]2O1 (relative stereo) [Example 22, (3RS, 5SR)-3-(N-Phenylcarbamoyloxymethyl)-4-oxa-1-azabicyclo[3.2.0]heptan-7-one]
- IC50 [1]: 9.15 µM

Compound: O=C1C[C@@H]2O[C@@H](C[S+]([O-])c3ccc([N+](=O)[O-])cc3)CN12 (single isomer, unassigned) [Example 20 (isomer I), (3RS, 5SR)-3-p-Nitrophenylsulphinylmethyl-4-oxa-1-azabicyclo[3.2.0] heptan-7-one]
- IC50 [1]: 2.7 µM

Compound: O=C1C[C@@H]2O[C@@H](CSc3ccccc3)CN12 (racemic) [Example 7, (3RS, 5SR)-3-Phenylthiomethyl-4-oxa-1-azabicyclo[3.2.0]heptan-7-one]
- IC50 [1]: 10.2 µM

Compound: O=C1C[C@@H]2O[C@@H](COc3ccc([N+](=O)[O-])cc3)CN12 (racemic) [Example 15, (3RS, 5SR)-3-p-Nitrophenoxymethyl-4-oxa-1-azabicyclo[3.2.0]heptan-7-one]
- IC50 [1]: 16.7 µM

Compound: (3RS, 5RS)- and (3RS, 5SR)-3-(2-Bromoethyl)-4-oxa-1-azabicyclo[3.2.0]heptan-7-one [Example 6.2]
- M.I.C. [2]: 500 µg/mL
- M.I.C. Ampicillin [3]: 0.4 µg/mL
- Number of mice alive ([4]; 250 mg./Kg. subcutaneous, Day 2): 5/5
- Number of mice alive ([4]; 250 mg./Kg. subcutaneous, Day 3): 5/5
- Number of mice alive ([4]; 250 mg./Kg. subcutaneous, Days 0 and 1): 5/5
- Number of mice alive ([4]; 250 mg./Kg. subcutaneous, Days 4 to 7): 5/5
- Number of mice alive ([4]; 500 mg./Kg. subcutaneous, Day 2): 5/5
- Number of mice alive ([4]; 500 mg./Kg. subcutaneous, Day 3): 5/5
- Number of mice alive ([4]; 500 mg./Kg. subcutaneous, Days 0 and 1): 5/5
- Number of mice alive ([4]; 500 mg./Kg. subcutaneous, Days 4 to 7): 5/5
- Number of mice alive ([4]; 1000 mg./Kg. subcutaneous, Day 2): 5/5
- Number of mice alive ([4]; 1000 mg./Kg. subcutaneous, Day 3): 5/5
- Number of mice alive ([4]; 1000 mg./Kg. subcutaneous, Days 0 and 1): 5/5
- Number of mice alive ([4]; 1000 mg./Kg. subcutaneous, Days 4 to 7): 5/5
- Number of mice alive ([4]; 2000 mg./Kg. subcutaneous, Day 2): 3/5
- Number of mice alive ([4]; 2000 mg./Kg. subcutaneous, Day 3): 2/5
- Number of mice alive ([4]; 2000 mg./Kg. subcutaneous, Days 0 and 1): 5/5
- Number of mice alive ([4]; 2000 mg./Kg. subcutaneous, Days 4 to 7): 2/5
- Survival and weight gain of remaining mice ([4]; 2000 mg./Kg. subcutaneous, end of observation period (7 days)): the other two remained alive and had gained weight
- Deaths ([4]; 2000 mg./Kg. subcutaneous, within 3 days): three out of the five mice were dead
- Survival and weight gain over the observation period ([4]; dosages up to 100 mg./Kg. subcutaneous, 7 days): all mice remained alive and gained in weight

Compound: O=C1C[C@@H]2O[C@@H](CS(=O)(=O)c3ccc([N+](=O)[O-])cc3)CN12 (relative stereo) [Example 0-20]
- IC50 [1]: 5.44 µM

Compound: O=C(OC[C@H]1CN2C(=O)C[C@@H]2O1)c1ccc([N+](=O)[O-])cc1 (racemic) [Example 14, (3RS, 5SR)-3-p-Nitrobenzoyloxymethyl-4-oxa-1-azabicyclo[3.2.0]heptan-7-one]
- IC50 [1]: 15.1 µM

Source: patent US4093626A, “β-Lactam antibiotics” (Beecham Group Limited, priority 1976, dated 1978)
